Test results from PubChem BioAssay (NCI).
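Assay format: 96-well plates, 48-hour exposure. The concentration for 50% growth inhibition is given as GI50. TGI denotes the concentration required for complete inhibition of growth.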

Assays:
Assay in all cases: NCI-60 cell line screen, 48 h
[1] = system: 786-0 renal
[2] = system: A498 renal
[3] = system: A549 NSCLC
[4] = system: ACHN renal
[5] = system: CAKI-1 renal
[6] = system: CCRF-CEM leukemia
[7] = system: COLO 205 colon
[8] = system: DU-145 prostate
[9] = system: EKVX NSCLC
[10] = system: HCC-2998 colon
[11] = system: HCT-116 colon
[12] = system: HCT-15 colon
[13] = system: HL-60(TB) leukemia
[14] = system: HOP-62 NSCLC
[15] = system: HOP-92 NSCLC
[16] = system: HT29 colon
[17] = system: IGROV1 ovarian
[18] = system: K-562 leukemia
[19] = system: KM12 colon
[20] = system: LOX IMVI melanoma
[21] = system: M14 melanoma
[22] = system: MALME-3M melanoma
[23] = system: MCF7 breast
[24] = system: MDA-MB-231 breast
[25] = system: MDA-MB-435
[26] = system: MDA-N
[27] = system: MOLT-4 leukemia
[28] = system: NCI-H226 lung
[29] = system: NCI-H23 lung
[30] = system: NCI-H460 lung
[31] = system: NCI-H522 lung
[32] = system: NCI/ADR-RES ovarian
[33] = system: OVCAR-3 ovarian
[34] = system: OVCAR-4 ovarian
[35] = system: OVCAR-5 ovarian
[36] = system: OVCAR-8 ovarian
[37] = system: PC-3 prostate
[38] = system: RXF 393 renal
[39] = system: SF-268 CNS
[40] = system: SF-295 CNS
[41] = system: SF-539 CNS
[42] = system: SK-MEL-2 melanoma
[43] = system: SK-MEL-28 melanoma
[44] = system: SK-MEL-5 melanoma
[45] = system: SK-OV-3 ovarian
[46] = system: SN12C renal
[47] = system: SNB-19 CNS
[48] = system: SNB-75 CNS
[49] = system: SR leukemia
[50] = system: SW-620 colon
[51] = system: T-47D breast
[52] = system: TK-10 renal
[53] = system: U251 CNS
[54] = system: UACC-257 melanoma
[55] = system: UACC-62 melanoma
[56] = system: UO-31 renal
[57] = system: BT-549 breast
[58] = system: HS 578T breast
[59] = system: RPMI-8226 leukemia

SMILES: O=c1c2ccccc2n2c(-c3ccccc3O)nnc2n1-c1ccccc1
- TGI [1]: > 100 µM
- TGI [2]: > 100 µM
- TGI [3]: > 100 µM
- TGI [4]: > 100 µM
- TGI [5]: > 100 µM
- TGI [6]: > 100 µM
- TGI [7]: > 100 µM
- TGI [8]: > 100 µM
- TGI [9]: > 100 µM
- TGI [10]: > 100 µM
- TGI [11]: > 100 µM
- TGI [12]: > 100 µM
- TGI [13]: > 100 µM
- TGI [14]: > 100 µM
- TGI [15]: > 100 µM
- TGI [16]: > 100 µM
- TGI [17]: > 100 µM
- TGI [18]: > 100 µM
- TGI [19]: > 100 µM
- TGI [20]: > 100 µM
- TGI [21]: > 100 µM
- TGI [22]: > 100 µM
- TGI [23]: > 100 µM
- TGI [24]: > 100 µM
- TGI [25]: > 100 µM
- TGI [26]: > 100 µM
- TGI [27]: > 100 µM
- TGI [28]: > 100 µM
- TGI [29]: > 100 µM
- TGI [30]: > 100 µM
- TGI [31]: > 100 µM
- TGI [32]: > 100 µM
- TGI [33]: > 100 µM
- TGI [34]: > 100 µM
- TGI [35]: > 100 µM
- TGI [36]: > 100 µM
- TGI [37]: > 100 µM
- TGI [38]: > 100 µM
- TGI [39]: > 100 µM
- TGI [40]: > 100 µM
- TGI [41]: > 100 µM
- TGI [42]: > 100 µM
- TGI [43]: > 100 µM
- TGI [44]: > 100 µM
- TGI [45]: > 100 µM
- TGI [46]: > 100 µM
- TGI [47]: > 100 µM
- TGI [48]: > 100 µM
- TGI [49]: > 100 µM
- TGI [50]: > 100 µM
- TGI [51]: > 100 µM
- TGI [52]: > 100 µM
- TGI [53]: > 100 µM
- TGI [54]: > 100 µM
- TGI [55]: > 100 µM
- TGI [56]: 5.72 µM

SMILES: O=c1[nH]c(-c2ccc(Cl)c(Cl)c2)cn1-c1ccc(Cl)cc1
- GI50 [1]: 20.7 µM
- TGI [1]: 43.9 µM
- GI50 [2]: 22.2 µM
- TGI [2]: 47.6 µM
- GI50 [3]: 21.3 µM
- TGI [3]: 48 µM
- GI50 [4]: 32.5 µM
- TGI [4]: > 100 µM
- GI50 [57]: 37.7 µM
- TGI [57]: > 100 µM
- GI50 [5]: 25.4 µM
- TGI [5]: 49 µM
- GI50 [6]: 40.3 µM
- TGI [6]: > 100 µM
- GI50 [7]: 40.3 µM
- TGI [7]: > 100 µM
- GI50 [8]: 29.1 µM
- TGI [8]: > 100 µM
- GI50 [9]: 35.4 µM
- TGI [9]: > 100 µM
- GI50 [10]: 25.2 µM
- TGI [10]: 87.9 µM
- GI50 [11]: 15.8 µM
- TGI [11]: 34 µM
- GI50 [12]: > 100 µM
- TGI [12]: > 100 µM
- GI50 [13]: 34.1 µM
- TGI [13]: > 100 µM
- GI50 [14]: 16.3 µM
- TGI [14]: 31.9 µM
- GI50 [15]: 15.9 µM
- TGI [15]: 46.3 µM
- GI50 [58]: 17.2 µM
- TGI [58]: 51.8 µM
- GI50 [16]: 41.8 µM
- TGI [16]: > 100 µM
- GI50 [17]: 22.6 µM
- TGI [17]: 79.5 µM
- GI50 [18]: 21.5 µM
- TGI [18]: 46.9 µM
- GI50 [19]: 71.3 µM
- TGI [19]: > 100 µM
- GI50 [20]: 36.2 µM
- TGI [20]: > 100 µM
- GI50 [21]: 29.7 µM
- TGI [21]: > 100 µM
- GI50 [22]: 17 µM
- TGI [22]: 39.7 µM
- GI50 [23]: 56.3 µM
- TGI [23]: > 100 µM
- GI50 [24]: 15.2 µM
- TGI [24]: 46 µM
- GI50 [25]: 60 µM
- TGI [25]: > 100 µM
- GI50 [27]: 20.8 µM
- TGI [27]: 38.9 µM
- GI50 [28]: 22.9 µM
- TGI [28]: 54.1 µM
- GI50 [29]: 16.4 µM
- TGI [29]: 37.1 µM
- GI50 [30]: 22.3 µM
- TGI [30]: 52.2 µM
- GI50 [31]: 44.3 µM
- TGI [31]: > 100 µM
- GI50 [32]: 27.7 µM
- TGI [32]: > 100 µM
- GI50 [33]: 27.7 µM
- TGI [33]: 59 µM
- GI50 [34]: 19.7 µM
- TGI [34]: 35.3 µM
- GI50 [35]: 30.2 µM
- TGI [35]: > 100 µM
- GI50 [36]: 34.7 µM
- TGI [36]: > 100 µM
- GI50 [37]: 66.9 µM
- TGI [37]: > 100 µM
- GI50 [59]: 56.9 µM
- TGI [59]: > 100 µM
- GI50 [38]: 32.7 µM
- TGI [38]: 56.4 µM
- GI50 [39]: 21.6 µM
- TGI [39]: 59.3 µM
- GI50 [40]: 25 µM
- TGI [40]: 64 µM
- GI50 [41]: 20.1 µM
- TGI [41]: 54.2 µM
- GI50 [42]: 24.4 µM
- TGI [42]: 64.6 µM
- GI50 [43]: 59.6 µM
- TGI [43]: > 100 µM
- GI50 [44]: 42.2 µM
- TGI [44]: > 100 µM
- GI50 [45]: 19.9 µM
- TGI [45]: 41.7 µM
- GI50 [46]: 26.7 µM
- TGI [46]: > 100 µM
- GI50 [47]: 30.1 µM
- TGI [47]: 81.2 µM
- GI50 [48]: 18.6 µM
- TGI [48]: 37.5 µM
- GI50 [49]: 4.64 µM
- TGI [49]: 16.2 µM
- GI50 [50]: 33.1 µM
- TGI [50]: > 100 µM
- GI50 [51]: 25.5 µM
- TGI [51]: 84.5 µM
- GI50 [52]: 16.5 µM
- TGI [52]: 32.4 µM
- GI50 [53]: 17.4 µM
- TGI [53]: 42.8 µM
- GI50 [54]: > 100 µM
- TGI [54]: > 100 µM
- GI50 [55]: 26.2 µM
- TGI [55]: 78.3 µM
- GI50 [56]: 25.4 µM
- TGI [56]: 60.5 µM

SMILES: O=C1c2cc3c(cc2CC12Cc1ccccc1C2)CCC3
- TGI [1]: 64.8 µM
- TGI [2]: > 100 µM
- TGI [3]: > 100 µM
- TGI [4]: 97.7 µM
- TGI [5]: 75.1 µM
- TGI [6]: 98.3 µM
- TGI [7]: 48.5 µM
- TGI [8]: > 100 µM
- TGI [9]: > 100 µM
- TGI [10]: > 100 µM
- TGI [11]: 47.5 µM
- TGI [12]: > 100 µM
- TGI [13]: 81.6 µM
- TGI [14]: 92 µM
- TGI [15]: 64.3 µM
- TGI [58]: > 100 µM
- TGI [16]: 50.5 µM
- TGI [17]: > 100 µM
- TGI [18]: > 100 µM
- TGI [19]: 56.9 µM
- TGI [20]: 36 µM
- TGI [21]: 70.6 µM
- TGI [22]: 71.5 µM
- TGI [23]: 54.6 µM
- TGI [24]: 66.7 µM
- TGI [25]: 73.1 µM
- TGI [26]: 86.8 µM
- TGI [27]: 54.5 µM
- TGI [28]: 73.8 µM
- TGI [29]: > 100 µM
- TGI [30]: > 100 µM
- TGI [31]: 93.3 µM
- TGI [32]: 76.8 µM
- TGI [33]: > 100 µM
- TGI [34]: > 100 µM
- TGI [35]: > 100 µM
- TGI [36]: 76.7 µM
- TGI [37]: > 100 µM
- TGI [59]: 68.2 µM
- TGI [38]: 67.2 µM
- TGI [39]: 93.7 µM
- TGI [40]: > 100 µM
- TGI [41]: 93.2 µM
- TGI [42]: 51.8 µM
- TGI [43]: > 100 µM
- TGI [44]: 32.2 µM
- TGI [45]: > 100 µM
- TGI [46]: > 100 µM
- TGI [47]: > 100 µM
- TGI [48]: 93.8 µM
- TGI [49]: 74.7 µM
- TGI [50]: > 100 µM
- TGI [51]: > 100 µM
- TGI [52]: > 100 µM
- TGI [53]: > 100 µM
- TGI [54]: 54.4 µM
- TGI [56]: > 100 µM
